Measured values as given in patent publication US7879789B2, “Surfactant and composition containing the same” (priority 2006, dated 2011).

Experiment: Emulsion stability of Table 1 blending compositions with various emulsifiers
Assay type: physicochemical
Conditions: storage at low temperature; Table 2
Procedure: The present inventors have prepared various polyoxyalkylene substitution compounds according to the respective synthesis examples and evaluated the emulsion stability for the blending compositions shown in Table 1. The various evaluation items are as follows. “Emulsion Stability” The oil phase component, water phase component, and various emulsifiers shown in Table 1 were mixed, and the emulsification mixing was carried out with a homomixer at 8000 rpm for 1 minute. The appearance was visually observed 30 minutes after emulsification, and the appearances were also observed after being stored for 3 days on standing at room temperature and also at −5° C., respectively. The evaluation criteria were as follows. • ◯ . . . The emulsion was uniform and milky white. • Δ . . . A small amount of floating oil was observed; however, it was milky white. • X . . . Solid matter was observed, or the separation of the water phase and the oil phase was observed.

Row | SMILES | emulsion stability at low temperature (in words)
1 | CCCCCCCCCCCC(=O)N[C@@H](CCC(=O)[O-])C(=O)[O-].[Na+].[Na+] [1-2, Sodium lauroyl-glutamate] | the emulsifier separated out
2 | CCCCCCCCCCCCOS(=O)(=O)[O-].[Na+] [Comparative Examples 1-1, Dodecyl sodium sulfate] | the emulsifier separated out
